Consider 23 molecules from patent US9730937B2, “RAF kinase modulator compounds and methods of use thereof” (AMBIT BIOSCIENCES CORPORATION, priority 2008, dated 2017).

The structures appear in SMILES notation.

For one test, the system named is panel of 290 distinct kinases (321 in the larger panel), excluding mutant variants. To be noted: asterisk: panel of 321 distinct kinases.
Protocol: The liganded beads were blocked with excess biotin and washed with blocking buffer (SeaBlock (Pierce), 1% BSA, 0.05% Tween 20, 1 mM DTT) to remove unbound ligand and to reduce non-specific binding. […] Test compounds were prepared as 100× stocks in DMSO and rapidly diluted into the aqueous environment. DMSO was added to control assays lacking a test compound. Primary screen interactions were performed in polypropylene 384-well plates in a final volume of 34 μL, while Kd determinations were performed in polystyrene 96-well plates in a final volume of 135 μL. […] The kinase concentration in the eluates was measured by quantitative PCR. Each kinase was tested individually against each compound. KdS were determined using eleven serial threefold dilutions. A selectivity score, which is a quantitative measure of selectivity of a compound against a panel of enzymes, may be calculated for a compound by dividing the number of enzymes for which a compound meets a set criteria, (for example, a binding constant of 100 nM or less), by the total number of enzymes tested. […] (Note, for those compounds tested in a larger kinase panel, as indicated by an asterisk (*) next to the S35 score, the divisor is 321 (i.e. the larger panel contains 321 distinct kinases, excluding mutant variants.)).
As to `COCCOc1cc2ncnc(Oc3cccc(NC(=O)Nc4cc(C(C)C)on4)c3)c2cc1OC` [Ex 206, 1-(5-isopropylisoxazol-3-yl)-3-(3-(6-methoxy-7-(2-methoxyethoxy)quinazolin-4-yloxy)phenyl)urea], the S35 entry is recorded as “C* (0.20 < C ≦ 0.40)”.

Regarding `COCCOc1cc2ncnc(Oc3cccc(NC(=O)Nc4cc(C5CCCC5)no4)c3)c2cc1OC` [Ex 207, 1-(3-cyclopentylisoxazol-5-yl)-3-(3-(6-methoxy-7-(2-methoxyethoxy)quinazolin-4-yloxy)phenyl)urea], the S35 entry is given as “C* (0.20 < C ≦ 0.40)”.

Consider `COCCOc1cc2ncnc(Oc3cccc(NC(=O)Nc4cc(C(F)(F)F)n(C)n4)c3)c2cc1OC` [Ex 208, 1-{3-[6-methoxy-7-(2-methoxyethoxy)quinazolin-4-yloxy]phenyl}-3-[1-methyl-5-(trifluoromethyl)-1H-pyrazol-3-yl]urea], for which the S35 result was “C* (0.20 < C ≦ 0.40)”.

`COCCOc1cc2ncnc(Oc3cccc(NC(=O)Nc4cc(C(C)(C)C)nn4C)c3)c2cc1OC` [Ex 209, 1-(3-tert-butyl-1-methyl-1H-pyrazol-5-yl)-3-(3-(6-methoxy-7-(2-methoxyethoxy)quinazolin-4-yloxy)phenyl)urea]: the S35 result is reported as “C* (0.20 < C ≦ 0.40)”.

`COCCOc1cc2ncnc(Oc3cccc(NC(=O)Nc4cc(C(C)(C)C)nn4-c4ccccc4)c3)c2cc1OC` [Ex 210, 1-(3-tert-butyl-1-phenyl-1H-pyrazol-5-yl)-3-(3-(6-methoxy-7-(2-methoxyethoxy)quinazolin-4-yloxy)phenyl)urea]: the S35 entry was “D* (D > 0.40)”.

Consider `COCCOc1cc2ncnc(Oc3cccc(NC(=O)Nc4cc(C(C)(F)F)no4)c3)c2cc1OC` [Ex 211, 1-(3-(1,1-difluoroethyl)isoxazol-5-yl)-3-(3-(6-methoxy-7-(2-methoxyethoxy)quinazolin-4-yloxy)phenyl)urea], for which the S35 entry is “C* (0.20 < C ≦ 0.40)”.

On to `COCCOc1cc2ncnc(Oc3cccc(NC(=O)Nc4cc(C(C)(CF)CF)on4)c3)c2cc1OC` [Ex 213, 1-[5-(1,3-difluoro-2-methylpropan-2-yl)isoxazol-3-yl]-3-{3-[6-methoxy-7-(2-methoxyethoxy)quinazolin-4-yloxy]phenyl}urea], for which the S35 entry is given as “D* (D > 0.40)”.

With `COCCOc1cc2ncnc(Oc3cccc(NC(=O)Nc4cc(C5CC5)no4)c3)c2cc1OC` [Ex 214, 1-(3-cyclopropylisoxazol-5-yl)-3-(3-(6-methoxy-7-(2-methoxyethoxy)quinazolin-4-yloxy)phenyl)urea], the S35 result is given as “C* (0.20 < C ≦ 0.40)”.

Turning to `COCCOc1cc2ncnc(Oc3cccc(NC(=O)Nc4cc(C(C)C)no4)c3)c2cc1OC` [Ex 215, 1-(3-isopropylisoxazol-5-yl)-3-(3-(6-methoxy-7-(2-methoxyethoxy)quinazolin-4-yloxy)phenyl)urea], the S35 entry is “C* (0.20 < C ≦ 0.40)”.

Take `COCCOc1cc2ncnc(Oc3cccc(NC(=O)Nc4cc(C5CCOCC5)no4)c3)c2cc1OC` [Ex 216, 1-(3-(6-methoxy-7-(2-methoxyethoxy)quinazolin-4-yloxy)phenyl)-3-(3-(tetrahydro-2H-pyran-4-yl)isoxazol-5-yl)urea]: the S35 result is on record as “B* (0.10 < B ≦ 0.20)”.

As to `COCCOc1cc2ncnc(Oc3cccc(NC(=O)Nc4cc(C(C)(C)COC)on4)c3)c2cc1OC` [Ex 217, 1-(5-(1-methoxy-2-methylpropan-2-yl)isoxazol-3-yl)-3-(3-(6-methoxy-7-(2-methoxyethoxy)quinazolin-4-yloxy)phenyl)urea], the S35 entry is reported as “C* (0.20 < C ≦ 0.40)”.

Staying with this test, now noted: kinase selectivity score, 290 distinct kinases; class symbols.
With `CCOc1cc2ncnc(Sc3cccc(NC(=O)Nc4cc(C(C)(C)C)on4)c3)c2cc1OC` [Ex 50, 1-(5-tert-butylisoxazol-3-yl)-3-[3-(7-ethoxy-6-methoxyquinazolin-4-ylthio)phenyl]urea], the S35 result is “B (0.10 < B ≦ 0.20)”.

Regarding `COc1cc(NC(=O)Nc2cccc(Sc3ncnc4cc(OC)c(OC)cc34)c2)cc(C(F)(F)F)c1` [Ex 115, 1-(3-(6,7-dimethoxyquinazolin-4-ylthio)phenyl)-3-(3-methoxy-5-(trifluoromethyl)phenyl)urea], the S35 entry is “C (0.20 < C ≦ 0.40)”.

In the case of `COc1cc(NC(=O)Nc2cccc(Oc3ncnc4cc(OC)c(OC)cc34)c2)cc(C(F)(F)F)c1` [Ex 116, 1-(3-(6,7-dimethoxyquinazolin-4-yloxy)phenyl)-3-(3-methoxy-5-(trifluoromethyl)phenyl)urea], the S35 entry is “B (0.10 < B ≦ 0.20)”.

For `COCCOc1cc(NC(=O)Nc2cccc(Oc3ncnc4cc(OCCOC)c(OC)cc34)c2)cc(C(F)(F)F)c1` [Ex 117, 1-(3-(6-methoxy-7-(2-methoxyethoxy)quinazolin-4-yloxy)phenyl)-3-(3-(2-methoxyethoxy)-5-(trifluoromethyl)phenyl)urea], the S35 entry was “C (0.20 < C ≦ 0.40)”.

In the case of `COc1cc2ncnc(Oc3cccc(NC(=O)Nc4cc(C(C)(C)F)no4)c3)c2cc1OC` [Ex 126, 1-(3-(6,7-dimethoxyquinazolin-4-yloxy)phenyl)-3-(3-(2-fluoropropan-2-yl)isoxazol-5-yl)urea], the S35 result is reported as “C (0.20 < C ≦ 0.40)”.

For `COCCOc1cc2ncnc(Oc3cccc(NC(=O)Nc4cc(-c5ccccc5)on4)c3)c2cc1OC` [Ex 203, 1-(3-(6-methoxy-7-(2-methoxyethoxy)quinazolin-4-yloxy)phenyl)-3-(5-phenylisoxazol-3-yl)urea], the S35 entry was “B (0.10 < B ≦ 0.20)”.

Staying with this test, now noted: kinase selectivity score, value marked * (larger kinase panel); class symbols.
For the molecule `COc1cc2ncnc(Oc3cccc(NC(=O)Nc4cc(C(C)(C)F)no4)c3)c2cc1OCCCS(C)(=O)=O` [Ex 42, 1-(3-(2-fluoropropan-2-yl)isoxazol-5-yl)-3-(3-(7-methoxy-6-(3-(methylsulfonyl)propoxy)quinazolin-4-yloxy)phenyl)urea], the S35 result is reported as “C* (0.20 < C ≦ 0.40)”.

For the molecule `COc1cc2ncnc(Oc3cccc(NC(=O)Nc4cc(C(C)(C)C#N)no4)c3)c2cc1OC` [Ex 125, 1-(3-(2-cyanopropan-2-yl)isoxazol-5-yl)-3-(3-(6,7-dimethoxyquinazolin-4-yloxy)phenyl)urea], the S35 result is on record as “C* (0.20 < C ≦ 0.40)”.

`COc1cc2ncnc(Oc3cccc(NC(=O)Nc4cc(C5(C(F)(F)F)CC5)nn4-c4ccccc4)c3)c2cc1OC` [Ex 137, 1-(3-(6,7-dimethoxyquinazolin-4-yloxy)phenyl)-3-(1-phenyl-3-(1-(trifluoromethyl)cyclopropyl)-1H-pyrazol-5-yl)urea]: the S35 result is listed as “D* (D > 0.40)”.

For the molecule `COc1cc2ncnc(Oc3cccc(NC(=O)Nc4ccc(C(F)(F)F)c(F)c4)c3)c2cc1OC` [Ex 150, 1-(3-(6,7-dimethoxyquinazolin-4-yloxy)phenyl)-3-(3-fluoro-4-(trifluoromethyl)phenyl)urea], the S35 entry is listed as “C* (0.20 < C ≦ 0.40)”.

On to `COc1cc2ncnc(Oc3cccc(NC(=O)Nc4cc(C(C)(CF)CF)no4)c3)c2cc1OC` [Ex 159, 1-[3-(1,3-difluoro-2-methylpropan-2-yl)isoxazol-5-yl]-3-[3-(6,7-dimethoxyquinazolin-4-yloxy]phenyl)urea], for which the S35 result is recorded as “D* (D > 0.40)”.

`COc1cc2ncnc(Sc3cccc(NC(=O)Nc4ccc(C(F)(F)F)cc4)c3)c2cc1OC` [Ex 184, 1-(3-(6,7-dimethoxyquinazolin-4-ylthio)phenyl)-3-(4-(trifluoromethyl)phenyl)urea]: the S35 entry is recorded as “C* (0.20 < C ≦ 0.40)”.
